Entries after “also recorded” stand apart in the source; their conditions may differ.
What was measured:
Calu-6 cells = experiment: Cell proliferation (CCK8) assay, Calu-6; assay type: cell-based; conditions: Homo sapiens, Calu-6, 72 h, read-out: IC50 (growth inhibition, cytotoxicity)
Description: (§1) A375, HCT116, Calu-6, and B16-F10 cells were purchased from American Type Culture Collection (ATCC) and cultured in DMEM high glucose media (SH30022.01, Cytiva, Shanghai, China) supplemented with 10% fetal bovine serum (10099-144, Gibco, Carlsbad, CA, USA) and 1% penicillin/streptomycin (Solarbio, Beijing, China) in an incubator at 37 °C with 5% CO2.
(§2) A 96-well plate (3599, Corning, New York, NY, USA) was inoculated with 100 μL of complete medium containing 10,000 cells, and the experimental, control, and blank groups were established. Three parallel wells were used per concentration. After 10 h, the media from the experimental and control groups were replaced with a compound containing the indicated concentration of the complete medium. Cells were incubated for 72 h before 10 μL of CCK8 reagent (CA1210, Solarbio, Beijing, China) was added to each well and incubated for 1 h. Using a microplate reader (Tecan, Mannendorf, Switzerland), the absorbance at 450 nm was measured. The IC50 values were determined using GraphPad Prism 8 and nonlinear regression curve fitting.

HCT116 cells = experiment: Cell proliferation (CCK8) assay, HCT116; assay type: cell-based, human; conditions: Homo sapiens, HCT-116, 72 h, HCT116, 72 h, read-out: IC50 (growth inhibition, cytotoxicity)
Description: as §1, §2

A375 cells = experiment: Cell proliferation (CCK8) assay, A375; assay type: cell-based; conditions: Homo sapiens, A-375, A375, 72 h, read-out: IC50 (growth inhibition, cytotoxicity)
Description: as §1, §2

ERK1/2 = experiment: Western blot ERK1/2 protein degradation assay in A375 cells; assay type: cell-based, human; conditions: 48 h; for ERK1/2 degradative activity (in words): Western blot; for DC50: Western blotting and grayscale quantification; for DCmax: Western blot with grayscale quantification
Description: as §1
Cells were cultured under the indicated conditions as described in “Cell culture”. Cells were seeded in 6-well plates (3516, Corning, New York, NY, USA). Compounds were dissolved in DMSO for storage (10 mM). Following compound treatment, cells were washed with PBS, scraped from the plate, and lysed using cell lysis buffer (Applygen, Beijing, China). After the protein in the cell lysate was quantified via the BCA quantification method, the samples were placed in a metal bath at 100 °C and heated for 5 min. Cell lysates were separated using a 10% SDS–PAGE gel and transferred to PVDF membranes (Merck Millipore, Burlington, MA, USA). The PVDF membrane was blocked with 5% nonfat dry milk in TBST for one hour. The PVDF membrane was transferred to the antibody diluent and incubated overnight at 4 °C. PVDF membranes were washed three times with TBST for 5 min each and then incubated with the appropriate HRP-conjugated secondary antibody for 1 h at room temperature. After washing three more times with TBST, the PVDF membrane was stained with a hypersensitive ECL chemiluminescence reagent (Biodragon, Beijing, China) and then imaged with Tanon 5200. Grayscale quantitative analysis was performed using ImageJ software. Statistical analysis was performed using GraphPad Prism 8. DC50 and Dmax values were fitted using a four-parameter [inhibitor] versus response and reported directly from the Prism output. Mean ± SD and unpaired t tests were performed in GraphPad Prism.

HCT116 tumor = experiment: HCT116 subcutaneous xenograft model in nude mice; assay type: in vivo; conditions: mouse, in vivo
Description: Male BALB/c nude mice of around 8 weeks old were purchased from Charles River (Beijing, China). Nude mice were raised in SPF-grade animal rooms and had access to water and food ad libitum. HCT116 colorectal cancer cells were grown in DMEM supplemented with 10% fetal calf serum and 1% penicillin/streptomycin under standard cell culture conditions. HCT116 xenografts were prepared by subcutaneously injecting 5× 10^6 cells suspended in PBS into the right flank of each male BALB/c nude mouse. Tumor growth was monitored via caliper measurement, and volume was calculated using the following equation: 0.5 × max (length/width) × min (length/width) × min (length/width). When the tumors reached an average of approximately 100 mm^3, the mice were randomized into groups of five. The mice were injected intraperitoneally once a day at doses of 6, 12, 25 mg/kg compound B1-10J and 25 mg/kg 5-FU. Body weights and tumor volumes were measured every 2–3 days. All studies were appropriately statistically powered.

| Compound | IC50 (Calu-6 cells) [µM] | IC50 (HCT116 cells) [µM] | IC50 (A375 cells) [µM] | ERK1/2 degradative activity (in words) (ERK1/2) | DC50 (ERK1/2) [µM] | melting point [°C] | DCmax (ERK1/2) | body weight / tolerability (HCT116 tumor) |
| --- | --- | --- | --- | --- | --- | --- | --- | --- |
| CNCCC#Cc1cc(Nc2ncc(C)c(-c3cc4n(c3)C[C@@H](C)N(Cc3cccc(C)n3)C4=O)n2)ccn1 [B-J] | 6.5 ± 1.3 | 17.8 ± 3.9 | 16.8 ± 3 | – | – | – | – | – |
| Cc1cccc(CN2C(=O)c3cc(-c4nc(Nc5cccc(C#CCCNC(=O)CCCCCCCCCNc6cccc7c6C(=O)N(C6CCC(=O)NC6=O)C7=O)c5)ncc4C)cn3C[C@H]2C)n1 (stereo partly shown) [Compound B1-10B] | – | – | – | no degradative activity was observed | – | – | – | – |
| Cc1cccc(CN2C(=O)c3cc(-c4nc(Nc5ccnc(C#CCCN(C)CCCCCCCCCCCC(=O)N[C@H](C(=O)N6C[C@H](O)C[C@H]6C(=O)N[C@@H](C)c6ccc(-c7scnc7C)cc6)C(C)(C)C)c5)ncc4C)cn3C[C@H]2C)n1 [Compound B2-12J] | – | – | – | lost its degradative activity | – | – | – | – |
| Cc1cccc(CN2C(=O)c3cc(-c4nc(Nc5ccnc(C#CCCNC(=O)CCCCCCCCC(=O)N[C@H](C(=O)N6C[C@H](O)C[C@H]6C(=O)N[C@@H](C)c6ccc(-c7scnc7C)cc6)C(C)(C)C)c5)ncc4C)cn3C[C@H]2C)n1 [Compound B2-10] | – | – | – | effective ERK1/2 degraders | 0.699 ± 0.361 | 144 to 145 | – | – |
| Cc1cccc(CN2C(=O)c3cc(-c4nc(Nc5ccnc(C#CCCN6CCN(CCCCCCCCNc7cccc8c7C(=O)N(C7CCC(=O)NC7=O)C8=O)CC6)c5)ncc4C)cn3C[C@H]2C)n1 (stereo partly shown) [Compound B1-10P] | > 30 | 2.2 ± 0.6 | > 30 | slightly increased DC50; also recorded: effective ERK1/2 degraders | 0.616 ± 0.389 | – | – | – |
| Cc1cccc(CN2C(=O)c3cc(-c4nc(Nc5ccnc(C#CCCNC(=O)CCCCCCCCCNc6cccc7c6C(=O)N(C6CCC(=O)NC6=O)C7=O)c5)ncc4C)cn3C[C@H]2C)n1 (stereo partly shown) [Compound B1-10] | > 30 | > 30 | > 30 | effective ERK1/2 degraders | 0.333 ± 0.169 | – | exceeding 65% | – |
| Cc1cccc(CN2C(=O)c3cc(-c4nc(Nc5ccnc(C#CCCNC(=O)CCCCCCCCCCC(=O)N[C@H](C(=O)N6C[C@H](O)C[C@H]6C(=O)N[C@@H](C)c6ccc(-c7scnc7C)cc6)C(C)(C)C)c5)ncc4C)cn3C[C@H]2C)n1 [Compound B2-12] | > 30 | 11.7 ± 10.5 | 7.5 ± 6.1 | effective ERK1/2 degraders | 0.383 ± 0.208 | 143 to 144 | exceeding 65% | – |
| Cc1cccc(CN2C(=O)c3cc(-c4nc(Nc5ccnc(C#CCCN6CCN(CCCCCCCCCC(=O)N[C@H](C(=O)N7C[C@H](O)C[C@H]7C(=O)N[C@@H](C)c7ccc(-c8scnc8C)cc7)C(C)(C)C)CC6)c5)ncc4C)cn3C[C@H]2C)n1 [Compound B2-12P] | – | – | – | significantly increased DC50 value | 3.8 ± 1.82 | 145 to 146 | – | – |
| Cc1cccc(CN2C(=O)c3cc(-c4nc(Nc5ccn(CCCCNC(=O)CCCCCCCCCNc6cccc7c6C(=O)N(C6CCC(=O)NC6=O)C7=O)n5)ncc4C)cn3C[C@H]2C)n1 (stereo partly shown) [Compound B1-10BZ] | – | – | – | degradative activity disappeared; also recorded: no degradative activity was observed | – | – | – | – |
| Cc1cccc(CN2C(=O)c3cc(-c4nc(Nc5ccnc(NCCCNC(=O)CCCCCCCCCNc6cccc7c6C(=O)N(C6CCC(=O)NC6=O)C7=O)c5)ncc4C)cn3C[C@H]2C)n1 (stereo partly shown) [Compound B1-10N] | – | – | – | degradative activity disappeared | – | 110 to 111 | – | – |
| Cc1cccc(CN2C(=O)c3cc(-c4nc(Nc5ccnc(C#CCCNC(=O)CCCCCCCCCCCCC(=O)N[C@H](C(=O)N6C[C@H](O)C[C@H]6C(=O)N[C@@H](C)c6ccc(-c7scnc7C)cc6)C(C)(C)C)c5)ncc4C)cn3C[C@H]2C)n1 [Compound B2-14] | – | – | – | effective ERK1/2 degraders | 0.307 ± 0.191 | 128 to 129 | exceeding 65% | – |
| O=c1[nH]cc(F)c(=O)[nH]1 [Compound 5-FU, 5-fluorouracil, reference compound] | – | – | – | – | – | – | – | trend of weight loss |
